“And” between values parts separate entries of the source, which are not always exact repeats. Identical values can stand only once. Ends that are not written are not given here. Peptide text beside a SMILES is read from it. * marks the point of attachment. Biotin = O=C1N[C@H]2[C@H](CS[C@H]2CCCCC(=O)*)N1

One assay concerns the target GST-PDZ2 (Baz PDZ2) (Drosophila melanogaster, UniProt Q0KHR3). In words: SPR binding of peptides to immobilized GST-PDZ2 (Biacore 3000). To be noted: for Kd: GST-PDZ2 immobilized on CM5 at 30 µg/ml in 10 mM HEPES pH 7.0, HBS-EP running buffer pH 7.4, steady state model. The method, then: (§1) To test the binding of purified peptides to the PDZ domain GST fusion proteins, we acquired one peptide for each PDZ domain corresponding to single peptides identified by phage display (Fig. 3A). We separately immobilized PDZ domain GST fusion proteins on solid supports and analyzed peptide binding by surface plasmon resonance (SPR).
(§2) Binding experiments were conducted with a Biacore 3000 biosensor (GE Healthcare, USA), as described. Specifically, the GST fusion proteins of each PDZ domain alone or of the PDZ domains in tandem were immobilized on CM5 chips (GE Healthcare) at a concentration of 30 µg/ml in 10 mM sodium acetate (pH 5.5) for PDZ1, PDZ3 and PDZ1-3, and in 10 mM HEPES (pH 7.0) for PDZ2. The peptides for SPR were biotinylated but otherwise identical to those indentified by phage display (Peptide 1, Biotin-SAPGGGLRIVNGLWIF; Peptide 2, Biotin-SAPGGGDREWWV; Peptide 3, Biotin-SAPGGGRVLWFDLGIF; synthesized by Sheldon Biotechnology Centre, McGill University, Canada). All peptides were solubilized in HBS-EP running buffer (10 mM Hepes pH 7.4, 150 mM NaCl, 3 mM EDTA, 0.005% Surfactant P20) and were flowed over the immobilized proteins in this buffer. For Peptide 1 and Peptide 3, KD values were determined with a 1∶1 binding model with drifting baseline. For Peptide 2, KD values were determined with a steady state model.
A general note: SPR reads the build-up and loss of mass on a sensor chip optically.

The target in assay [1] is GST-PDZ1-3 (Baz PDZ domains in tandem) (Drosophila melanogaster, UniProt Q0KHR3). Nature of the assay: SPR binding of peptides to immobilized tandem GST-PDZ1-3 (Biacore 3000). The settings on record: for KD values of GST-PDZ1-3 compared with single GST-PDZ domains (in words): SPR, HBS-EP pH 7.4, tandem versus single PDZ domain alone; for Kd: tandem GST-PDZ1-3 immobilized on CM5 at 30 µg/ml in 10 mM sodium acetate pH 5.5, HBS-EP running buffer pH 7.4.
Sequence of GST-PDZ1-3 (Baz PDZ domains in tandem) (Q0KHR3 1-1520): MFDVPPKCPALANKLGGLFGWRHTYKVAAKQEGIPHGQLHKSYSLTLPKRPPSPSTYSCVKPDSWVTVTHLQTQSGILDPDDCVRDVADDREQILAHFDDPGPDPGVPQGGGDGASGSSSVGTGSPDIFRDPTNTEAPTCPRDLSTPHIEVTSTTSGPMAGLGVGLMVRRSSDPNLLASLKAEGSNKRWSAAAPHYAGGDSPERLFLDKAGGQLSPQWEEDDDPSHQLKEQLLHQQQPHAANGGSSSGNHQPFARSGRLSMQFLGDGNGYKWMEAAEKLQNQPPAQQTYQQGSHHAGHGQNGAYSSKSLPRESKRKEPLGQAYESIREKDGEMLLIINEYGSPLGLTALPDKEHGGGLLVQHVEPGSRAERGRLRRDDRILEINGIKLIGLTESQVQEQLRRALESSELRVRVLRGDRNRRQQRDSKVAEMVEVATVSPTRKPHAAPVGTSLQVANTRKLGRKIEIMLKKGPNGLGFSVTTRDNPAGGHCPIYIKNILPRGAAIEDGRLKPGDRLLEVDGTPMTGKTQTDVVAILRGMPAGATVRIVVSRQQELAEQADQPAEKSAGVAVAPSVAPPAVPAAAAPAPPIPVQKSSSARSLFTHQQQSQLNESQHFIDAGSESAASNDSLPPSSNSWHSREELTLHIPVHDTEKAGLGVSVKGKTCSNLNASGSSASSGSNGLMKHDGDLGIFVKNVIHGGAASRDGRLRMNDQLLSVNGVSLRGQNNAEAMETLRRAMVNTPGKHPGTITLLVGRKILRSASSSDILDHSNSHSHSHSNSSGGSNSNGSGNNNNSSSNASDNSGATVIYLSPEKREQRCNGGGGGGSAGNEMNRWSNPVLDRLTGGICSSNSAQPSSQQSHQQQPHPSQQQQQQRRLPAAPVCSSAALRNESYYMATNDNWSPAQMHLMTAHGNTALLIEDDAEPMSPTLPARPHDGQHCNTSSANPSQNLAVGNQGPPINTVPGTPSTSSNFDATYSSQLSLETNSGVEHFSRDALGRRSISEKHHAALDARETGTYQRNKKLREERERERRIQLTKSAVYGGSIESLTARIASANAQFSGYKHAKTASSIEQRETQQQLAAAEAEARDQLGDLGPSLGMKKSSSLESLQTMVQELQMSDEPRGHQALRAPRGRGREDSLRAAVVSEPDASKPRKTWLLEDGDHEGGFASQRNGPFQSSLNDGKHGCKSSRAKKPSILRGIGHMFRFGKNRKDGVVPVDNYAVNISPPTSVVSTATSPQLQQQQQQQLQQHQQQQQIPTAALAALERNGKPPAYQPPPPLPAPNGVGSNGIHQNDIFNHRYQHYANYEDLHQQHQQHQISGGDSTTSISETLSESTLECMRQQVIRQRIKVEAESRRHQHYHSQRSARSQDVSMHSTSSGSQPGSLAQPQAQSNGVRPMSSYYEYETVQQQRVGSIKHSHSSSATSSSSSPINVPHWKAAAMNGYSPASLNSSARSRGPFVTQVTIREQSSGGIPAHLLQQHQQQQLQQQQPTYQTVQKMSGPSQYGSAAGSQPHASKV
Description: With the binding strengths of individual PDZ domain-peptide interactions quantified, we next investigated whether the natural tandem arrangement of the PDZ domains affects their peptide binding. For these experiments, we purfied GST-PDZ1-3 and confirmed its stability by SDS-PAGE (Fig. 2B). To test the binding properties of the individual PDZ domains within the tandem, we separately probed GST-PDZ1-3 with Peptides 1, 2 and 3. […] To assess binding quantitatively, we determined the KD values of GST-PDZ1-3 binding to each peptide. […] Thus, the peptide binding pockets of each PDZ domain appear to be unaffected by tandem organization of the PDZ domains.
as §2

A further assay concerns the target GST-PDZ3 (Baz PDZ3) (Drosophila melanogaster, UniProt Q0KHR3). Nature of the assay: SPR binding of peptides to immobilized GST-PDZ3 (Biacore 3000). The settings on record: for Kd: GST-PDZ3 immobilized on CM5 at 30 µg/ml in 10 mM sodium acetate pH 5.5, HBS-EP running buffer pH 7.4, 1:1 binding model with drifting baseline. As for the experimental part: as §1, §2

The next assay deals with GST-PDZ1 (Baz PDZ1) (Drosophila melanogaster, UniProt Q0KHR3). In words: SPR binding of peptides to immobilized GST-PDZ1 (Biacore 3000). To be noted: for Kd: GST-PDZ1 immobilized on CM5 at 30 µg/ml in 10 mM sodium acetate pH 5.5, HBS-EP running buffer pH 7.4, 1:1 binding model with drifting baseline. As for the experimental part: as §1, §2
Sequence of GST-PDZ1 (Baz PDZ1) (Q0KHR3 1-1520): as above
Assay [2] has as its target GST-Baz PDZ1-3 (fusion protein containing all three PDZ domains and their normal linker regions) (Drosophila). Nature of the assay: SPR; Biacore 3000; GST fusion protein immobilised on CM5 chip (30 µg/ml in 10 mM sodium acetate pH 5.5); Peptide 1 or Peptide 3 flowed in HBS-EP (10 mM Hepes pH 7.4, 150 mM NaCl, 3 mM EDTA, 0.005% Surfactant P20); 1:1 binding model with drifting baseline.

For assay [3], the target named is GST-PDZ1 (GST fusion protein of Baz PDZ1) (Drosophila). Described as above.
Assay [4] addresses GST-PDZ3 (GST fusion protein of Baz PDZ3) (Drosophila). The assay is described as above.
The target in assay [5] is GST-PDZ2 (GST fusion protein of Baz PDZ2) (Drosophila). Nature of the assay: SPR; Biacore 3000; GST fusion protein immobilised on CM5 chip (30 µg/ml; PDZ2 in 10 mM HEPES pH 7.0, PDZ1-3 in 10 mM sodium acetate pH 5.5); Peptide 2 flowed in HBS-EP (10 mM Hepes pH 7.4, 150 mM NaCl, 3 mM EDTA, 0.005% Surfactant P20); steady state model.
In assay [6] the target is GST-Baz PDZ1-3 (fusion protein containing all three PDZ domains and their normal linker regions) (Drosophila). The assay is described as above.
[7] abbreviates: replicate 1 (separately purified proteins, separately prepared peptides).
[8] abbreviates: replicate 2 (separately purified proteins, separately prepared peptides).
Setting [9] is: replicate 1 (separately purified proteins, separately prepared peptides), Peptides 1 and 3: 1:1 binding model with drifting baseline.
[10] abbreviates: replicate 2 (separately purified proteins, separately prepared peptides), Peptides 1 and 3: 1:1 binding model with drifting baseline.

Sequence of GST-PDZ3 (Baz PDZ3) (Q0KHR3 1-1520): as above
Sequence of GST-PDZ2 (Baz PDZ2) (Q0KHR3 1-1520): as above

For orientation: Kd means a measure of binding affinity in units of concentration. High values mean weaker binding, low ones tighter binding. In the case of `CC(C)[C@H](NC(=O)[C@H](Cc1c[nH]c2ccccc12)NC(=O)[C@H](Cc1c[nH]c2ccccc12)NC(=O)[C@H](CCC(=O)O)NC(=O)[C@H](CCCNC(=N)N)NC(=O)[C@H](CC(=O)O)NC(=O)CNC(=O)CNC(=O)CNC(=O)[C@@H]1CCCN1C(=O)[C@H](C)NC(=O)[C@H](CO)NC(=O)CCCC[C@@H]1SC[C@@H]2NC(=O)N[C@@H]21)C(=O)O` [Peptide 2, Biotin-SAPGGGDREWWV] (Biotin-SAPGGGDREWWV-OH), the “KD values (in words)” value on GST-PDZ2 (Baz PDZ2) (SPR, HBS-EP pH 7.4, GST-PDZ2, summary of Table 1) is “in the µM range”. For the same molecule, the dissociation constant Kd was 17700 nM at GST-PDZ2 (Baz PDZ2) (setting [7]); 13000 nM at GST-PDZ2 (Baz PDZ2) (setting [8]); 9130 nM in assay [1] (replicate 1 (separately purified proteins, separately prepared peptides), Peptide 2: steady state model); 9980 nM in assay [1] (replicate 2 (separately purified proteins, separately prepared peptides), Peptide 2: steady state model). Besides, the “KD values of GST-PDZ1-3 compared with single GST-PDZ domains (in words)” value in assay [1] is given as “very close to those of each GST-PDZ domain alone”.
As for `CC[C@H](C)[C@H](NC(=O)CNC(=O)[C@H](CC(C)C)NC(=O)[C@H](CC(=O)O)NC(=O)[C@H](Cc1ccccc1)NC(=O)[C@H](Cc1c[nH]c2ccccc12)NC(=O)[C@H](CC(C)C)NC(=O)[C@@H](NC(=O)[C@H](CCCNC(=N)N)NC(=O)CNC(=O)CNC(=O)CNC(=O)[C@@H]1CCCN1C(=O)[C@H](C)NC(=O)[C@H](CO)NC(=O)CCCC[C@@H]1SC[C@@H]2NC(=O)N[C@@H]21)C(C)C)C(=O)N[C@@H](Cc1ccccc1)C(=O)O` [Peptide 3, Biotin-SAPGGGRVLWFDLGIF] (Biotin-SAPGGGRVLWFDLGIF-OH), at GST-PDZ3 (Baz PDZ3) (SPR, HBS-EP pH 7.4, GST-PDZ3, summary of Table 1), the “KD values (in words)” value was “in the nM range”. The Kd stood at 45.9 nM at GST-PDZ3 (Baz PDZ3) (setting [7]), 25.2 nM at GST-PDZ3 (Baz PDZ3) (setting [8]), 49.4 nM in assay [1] (setting [9]) and 32.6 nM in assay [1] (setting [10]). In addition, the “KD values of GST-PDZ1-3 compared with single GST-PDZ domains (in words)” value in assay [1] is listed as “very close to those of each GST-PDZ domain alone”.
For `CC[C@H](C)[C@H](NC(=O)[C@H](Cc1c[nH]c2ccccc12)NC(=O)[C@H](CC(C)C)NC(=O)CNC(=O)[C@H](CC(N)=O)NC(=O)[C@@H](NC(=O)[C@@H](NC(=O)[C@H](CCCNC(=N)N)NC(=O)[C@H](CC(C)C)NC(=O)CNC(=O)CNC(=O)CNC(=O)[C@@H]1CCCN1C(=O)[C@H](C)NC(=O)[C@H](CO)NC(=O)CCCC[C@@H]1SC[C@@H]2NC(=O)N[C@@H]21)[C@@H](C)CC)C(C)C)C(=O)N[C@@H](Cc1ccccc1)C(=O)O` [Peptide 1, Biotin-SAPGGGLRIVNGLWIF] (Biotin-SAPGGGLRIVNGLWIF-OH), the “KD values (in words)” value at GST-PDZ1 (Baz PDZ1) (SPR, HBS-EP pH 7.4, GST-PDZ1, summary of Table 1) is recorded as “in the nM range”. In addition, the Kd was 164 nM on GST-PDZ1 (Baz PDZ1) (setting [7]), 186 nM on GST-PDZ1 (Baz PDZ1) (setting [8]), 263 nM in assay [1] (setting [9]) and 245 nM in assay [1] (setting [10]). Moreover, the “KD values of GST-PDZ1-3 compared with single GST-PDZ domains (in words)” value in assay [1] is “very close to those of each GST-PDZ domain alone”.
Regarding Biotin-SAPGGGLRIVNGLWIF [Peptide 1 (Biotin-…)], the Kd in assay [2] was 263 nM and 245 nM; in [3], 164 nM and 186 nM.
As for Biotin-SAPGGGRVLWFDLGIF [Peptide 3 (Biotin-…)], the Kd is 49.4 nM and 32.6 nM in assay [2]; 25.2 nM and 45.9 nM in assay [4].
For the molecule Biotin-SAPGGGDREWWV [Peptide 2 (Biotin-…)], the dissociation constant (Kd) in assay [5] was 17700 nM and 13000 nM; in [6] it was 9130 nM and 9980 nM.

The values above are taken from paper PMC3899232, “Peptide Binding Properties of the Three PDZ Domains of Bazooka (Drosophila Par-3)” (PLoS ONE, 2014).
